Test results from patent publication US20210060033A1, “ORALLY ADMINISTERED COMBINATIONS OF BETA-LACTAM ANTIBIOTICS AND AVIBACTAM DERIVATIVES FOR TREATING BACTERIAL INFECTIONS” (priority 2019, published 2021).
Where two headings read alike, the source gives them in different places.

Assays:
[1] = in vivo; cited from earlier work
[2] = cynomolgus monkey, in vivo; cited from earlier work
[3] = dog, in vivo; cited from earlier work
[4] = rat, in vivo, po; cited from earlier work
314 Enterobacteriaceae = type: cell-based; details: for MIC90 with addition of avibactam: all isolates combined, avibactam at a fixed concentration of 4 μg/mL; for Estimated MIC90: Enterobacteria n = 314 (all isolates combined), avibactam or clavulanic acid fixed at 4 μg/mL in combinations
[5] = tested on: KPC-positive isolates (n = 23); type: cell-based, Enterobacteriaceae; details: for Estimated MIC90: KPC n = 23, avibactam or clavulanic acid fixed at 4 μg/mL in combinations; for MIC90 with addition of avibactam: KPC-positive isolates, avibactam 4 μg/mL
[6] = tested on: ESBL-positive isolates (n = 28); type: cell-based, Enterobacteriaceae; details: ESBL n = 28; avibactam or clavulanic acid fixed at 4 μg/mL in combinations
[7] = tested on: OXA-positive isolates (n = 22); type: cell-based, Enterobacteriaceae; details: for Estimated MIC90: OXA n = 22, avibactam or clavulanic acid fixed at 4 μg/mL in combinations; for MIC90 with addition of avibactam: OXA-positive isolates, avibactam 4 μg/mL
[8] = tested on: pAmpC (PlasAmpC) isolates (n = 20); type: cell-based, Enterobacteriaceae; details: pAmpC n = 20; avibactam or clavulanic acid fixed at 4 μg/mL in combinations
[9] = Single ascending oral dose phase 1 study of avibactam derivative (3) (Example 3), avibactam PK; type: in vivo, human; details: avibactam in plasma, fed
Protocol: The pharmacokinetics of avibactam provided as an orally administered avibactam derivative was determined on healthy human volunteers. A randomized, double-blind, placebo-controlled single ascending dose phase 1 study was undertaken with healthy male and female adults. […] Plasma and urine PK samples were collected prior to dosing and at frequent intervals after dosing. […] FIG. 12 also provides an overall estimate of F for the study population (n=24) presented as a conventional box-whisker graphic (median, interquartile range [25-75%] and Tukey whiskers).

[10] = Oral administration of avibactam derivative (3) to healthy human volunteers (Example 2), plasma avibactam; type: in vivo; details: for AUC0-INF: unit not given
Protocol: The pharmacokinetics of avibactam provided as an orally administered avibactam derivative was determined on healthy human volunteers.
[…] The plasma concentration of avibactam was measured. The free avibactam concentration was adjusted for from 5% to 8% protein binding (AUCfree=AUC0-inf×[…]).

[11] = avibactam, oral 300 mg of avibactam derivative (3), healthy

Compound: CC(C)(COS(=O)(=O)ON1C(=O)N2C[C@H]1CC[C@H]2C(N)=O)C(=O)OCc1ccccc1 [avibactam derivative (4), benzyl 3-(((((1R,2S,5R)-2-carbamoyl-7-oxo-1,6-diazabicyclo[3.2.1]octan-6-yl)oxy)sulfonyl)oxy)-2,2-dimethylpropanoate]
- oral bioavailability (% F) [1]: greater than 10 % F

Compound: COC(=O)C(C)(C)COS(=O)(=O)ON1C(=O)N2C[C@H]1CC[C@H]2C(N)=O [avibactam derivative (10), methyl 3-(((((1R,2S,5R)-2-carbamoyl-7-oxo-1,6-diazabicyclo[3.2.1]octan-6-yl)oxy)sulfonyl)oxy)-2,2-dimethylpropanoate]
- oral bioavailability (% F) [1]: greater than 10 % F

Compound: CC(C)OC(=O)C(C)(C)COS(=O)(=O)ON1C(=O)N2C[C@H]1CC[C@H]2C(N)=O [avibactam derivative (11), isopropyl 3-(((((1R,2S,5R)-2-carbamoyl-7-oxo-1,6-diazabicyclo[3.2.1]octan-6-yl)oxy)sulfonyl)oxy)-2,2-dimethylpropanoate]
- oral bioavailability (% F) [1]: greater than 10 % F

Compound: CCCCCCOC(=O)C(C)(C)COS(=O)(=O)ON1C(=O)N2C[C@H]1CC[C@H]2C(N)=O [avibactam derivative (12), hexyl 3-(((((1R,2S,5R)-2-carbamoyl-7-oxo-1,6-diazabicyclo[3.2.1]octan-6-yl)oxy)sulfonyl)oxy)-2,2-dimethylpropanoate]
- oral bioavailability (% F) [1]: greater than 10 % F

Compound: CCCCCCCOC(=O)C(C)(C)COS(=O)(=O)ON1C(=O)N2C[C@H]1CC[C@H]2C(N)=O [avibactam derivative (13), heptyl 3-(((((1R,2S,5R)-2-carbamoyl-7-oxo-1,6-diazabicyclo[3.2.1]octan-6-yl)oxy)sulfonyl)oxy)-2,2-dimethylpropanoate]
- avibactam oral bioavailability [2]: greater than 50 % F
- avibactam oral bioavailability [3]: greater than 50 % F
- oral bioavailability (% F) [1]: greater than 10 % F

Compound: CC(C)(C)OC(=O)C(C)(C)COS(=O)(=O)ON1C(=O)N2C[C@H]1CC[C@H]2C(N)=O [avibactam derivative (14), tert-butyl 3-(((((1R,2S,5R)-2-carbamoyl-7-oxo-1,6-diazabicyclo[3.2.1]octan-6-yl)oxy)sulfonyl)oxy)-2,2-dimethylpropanoate]
- oral bioavailability (% F) [1]: greater than 10 % F

Compound: CCCCCCOC(=O)CCC(C)(C)COS(=O)(=O)ON1C(=O)N2C[C@H]1CC[C@H]2C(N)=O [avibactam derivative (36), hexyl 5-(((((1R,2S,5R)-2-carbamoyl-7-oxo-1,6-diazabicyclo[3.2.1]octan-6-yl)oxy)sulfonyl)oxy)-4,4-dimethylpentanoate]
- avibactam oral bioavailability (% F) [4]: greater than 10 % F

Compound: CCCCCCCOC(=O)CCC(C)(C)COS(=O)(=O)ON1C(=O)N2C[C@H]1CC[C@H]2C(N)=O [avibactam derivative (37), heptyl 5-(((((1R,2S,5R)-2-carbamoyl-7-oxo-1,6-diazabicyclo[3.2.1]octan-6-yl)oxy)sulfonyl)oxy)-4,4-dimethylpentanoate]
- avibactam oral bioavailability (% F) [4]: greater than 10 % F

Compound: CCCOC(=O)C(C)(C)COS(=O)(=O)ON1C(=O)N2C[C@H]1CC[C@H]2C(N)=O [avibactam derivative (57), propyl 3-(((((1R,2S,5R)-2-carbamoyl-7-oxo-1,6-diazabicyclo[3.2.1]octan-6-yl)oxy)sulfonyl)oxy)-2,2-dimethylpropanoate]
- avibactam oral bioavailability (% F) [4]: greater than 10 % F

Compound: CCCCOC(=O)C(C)(C)COS(=O)(=O)ON1C(=O)N2C[C@H]1CC[C@H]2C(N)=O [avibactam derivative (58), butyl 3-(((((1R,2S,5R)-2-carbamoyl-7-oxo-1,6-diazabicyclo[3.2.1]octan-6-yl)oxy)sulfonyl)oxy)-2,2-dimethylpropanoate]
- avibactam oral bioavailability (% F) [4]: greater than 10 % F

Compound: C[C@H]1[C@H](NC(=O)/C(=N\OC(C)(C)C(=O)O)c2csc(N)n2)C(=O)N1S(=O)(=O)O [aztreonam]
- MIC90 with addition of avibactam (314 Enterobacteriaceae): 0.5 µg/mL

Compound: C=CC1=C(C(=O)O)N2C(=O)[C@@H](NC(=O)/C(=N\OCC(=O)O)c3csc(N)n3)[C@H]2SC1 [cefixime]
- MIC90 with addition of avibactam (314 Enterobacteriaceae): 1 µg/mL

Compound: COCC1=C(C(=O)O)N2C(=O)[C@@H](NC(=O)/C(=N\OC)c3csc(N)n3)[C@H]2SC1 [cefpodoxime]
- Estimated MIC90 [5]: >32 µg/mL
- Estimated MIC90 [6]: >32 µg/mL
- Estimated MIC90 [7]: >32 µg/mL
- Estimated MIC90 (314 Enterobacteriaceae): >32 µg/mL
- MIC90 with addition of avibactam (314 Enterobacteriaceae): 4 µg/mL
- Estimated MIC90 [8]: >32 µg/mL

Compound: C[C@@H](O)[C@H]1C(=O)N2C(C(=O)O)=C(S[C@H]3CC[S@@+]([O-])C3)S[C@H]12 [sulopenem]
- Estimated MIC90 [5]: >32 µg/mL
- MIC90 with addition of avibactam [5]: 1 µg/mL
- Estimated MIC90 [6]: 0.12 µg/mL
- Estimated MIC90 [7]: >32 µg/mL
- MIC90 with addition of avibactam [7]: 1 µg/mL
- Estimated MIC90 (314 Enterobacteriaceae): 8 µg/mL
- MIC90 with addition of avibactam (314 Enterobacteriaceae): 0.25 µg/mL
- Estimated MIC90 [8]: 0.5 µg/mL

Compound: C[C@@H](O)[C@H]1C(=O)N2C(C(=O)O)=C(SC3CN(C4=NCCS4)C3)[C@H](C)[C@H]12 [tebipenem]
- Estimated MIC90 [5]: >32 µg/mL
- MIC90 with addition of avibactam [5]: 1 µg/mL
- Estimated MIC90 [6]: 0.12 µg/mL
- Estimated MIC90 [7]: >32 µg/mL
- MIC90 with addition of avibactam [7]: 1 µg/mL
- Estimated MIC90 (314 Enterobacteriaceae): 2 µg/mL
- MIC90 with addition of avibactam (314 Enterobacteriaceae): 0.25 µg/mL
- Estimated MIC90 [8]: 0.25 µg/mL

Compound: ethyl 3-(((((1R,2S,5R)-2-carbamoyl-7-oxo-1,6-diazabicyclo[3.2.1]octan-6-yl)oxy)sulfonyl)oxy)-2,2-dimethylpropanoate [avibactam derivative (3)]
- avibactam oral bioavailability [2]: greater than 50 % F
- Thalf ([9]; single oral dose 300 mg): 1.51 (0.24) h
- Thalf ([9]; single oral dose 900 mg): 2.65 (0.46) h
- Thalf ([9]; single oral dose 1,350 mg): 2.33 (0.18) h
- AUC0-INF ([10]; First Quartile, avibactam): 5.9
- AUC0-INF ([10]; Max, avibactam): 10.9
- AUC0-INF ([10]; Mean, avibactam): 7.6
- AUC0-INF ([10]; Min, avibactam): 3.1
- AUC0-INF ([10]; ThirdQuartile, avibactam): 10.1
- AUCinf [10, 11]: about 7,600 ng×h/mL
- T1/2 [10, 11]: about 1.5 hours
- T1/2 ([10]; oral 600 mg of avibactam derivative (3), healthy): about 1.5 hours
- dose of IV avibactam approximated by the oral dose ([10]; orally administered dose not given): ~400 mg
- dose of IV avibactam approximated by the oral dose ([10]; orally administered dose of 300 mg): ~62.5 mg
- avibactam oral bioavailability [3]: greater than 50 % F
- oral bioavailability (% F) [1]: greater than 10 % F
